Data: patent US20250034139A1, “AMINE COMPOUNDS HAVING ANTI-INFLAMMATORY, ANTIFUNGAL, ANTIPARASITIC, AND ANTICANCER ACTIVITY” (PHARMA CINQ, LLC, priority 2013, published 2025)

Key:
THP-1 cells = assay: Example D: LPS-triggered THP-1 cell death assay, acute/5-hour and chronic/48-hour; assay type: cell-based, Human; conditions: 10 ng/ml LPS, 0.1 μM test compound, 48 hours
Protocol: Compounds of the invention were tested at 0.1 μM versus AC in the LPS-triggered THP-1 cell death assay. Both acute/5-hour and chronic/48-hour phases of cell death were assessed. Compounds were screened in batches with DMSO as the negative control and AC as the high activity control.

[1] = test system: 4T1 murine breast cancer cells; assay: Example S: in vitro anticancer screen, 4T1 cells, Wst1; assay type: cell-based, mouse; conditions: Mus musculus, 4T1, 18 h, 18 hr, Wst1; for viability at 1 µM: read-out: 4T1 1 μM, percent of cancer cell survival relative to vehicle treated cells; for viability at 5 µM: read-out: 4T1 5 μM, percent of cancer cell survival relative to vehicle treated cells
Summary of the method: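 4T1 cells seeded at 1×10^4/well were exposed to compound at 1 μM or 5 μM for 18 hr after plating. Wst1 tetrazolium dye was then added for about 2 hr and absorbance read at 450 nm (reference 630 nm). Values are percent survival relative to vehicle-treated cells.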

[2] = test system: PC3 human prostate cancer cells; assay: Example S: in vitro anticancer screen, PC-3 cells, Wst1; assay type: cell-based; conditions: Homo sapiens, PC-3, approximately 20 hours, Wst1, read-out: PC-3, percent of cancer cell survival relative to vehicle treated cells
Summary of the method: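 PC-3 cells, 2×10^4 cells/well, exposed ~20 h to vehicle or compound at 0.4, 0.5 or 2.5 μM as specified per compound. Wst1 dye added for 2 h; absorbance 450 nm (reference 630 nm), triplicates. Values are percent cell survival versus vehicle-treated cells.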

[3] = test system: PC-3 prostate cancer cells; assay: Example T: sensitisation of PC-3 cells to doxorubicin, oxaliplatin, paclitaxel or vincristine, Wst1; assay type: cell-based, human; conditions: PC-3 cells, 72 hours; for viability at 2.5 µM: compound 2.5 μM alone; for Doxorubicin 3.5 μM: percent cell survival / Oxaliplatin 100 μM: percent cell survival / Paclitaxel 50 μM: percent cell survival / Vincristine 100 nM: percent cell survival: chemotherapy agent alone normalized to 100%
[4] = Homo sapiens, Wst1, vehicle = 100, read-out: No Chemo: percent cell survival
[5] = compound 2.5 μM + doxorubicin 3.5 μM
[6] = compound 2.5 μM + oxaliplatin 100 μM
[7] = compound 2.5 μM + paclitaxel 50 μM
[8] = compound 2.5 μM + vincristine 100 nM

Row | SMILES | Viable cell percent change, Chronic/48-hour, Mean (THP-1 cells) [%] | viability at 1 µM [1] [%] | viability at 5 µM [1] [%] | viability at 2.5 µM [2] [%] | viability at 2.5 µM [3, 4] [%] | Doxorubicin 3.5 μM: percent cell survival [3, 5] [%] | Oxaliplatin 100 μM: percent cell survival [3, 6] [%] | Paclitaxel 50 μM: percent cell survival [3, 7] [%] | Vincristine 100 nM: percent cell survival [3, 8] [%] | other results
1 | CCCCCCOc1cccc(Nc2ccnc3ccccc23)c1 [DN, N-[3-(Hexyloxy)phenyl]quinolin-4-amine] | 77.15 | 104 | 56.7 | 31.7 | 31.7 | 64.1 | 78 | 64.7 | 72.3 | –
2 | CCCCCCOCCCCCCCCCn1cnc2cnc3ccccc3c21 [FJ, 1-[9-(Hexyloxy)nonyl]-1H-imidazo[4,5-c]quinoline] | 27.44 | 38.1 | 24.5 | – | – | – | – | – | – | viability at 0.5 µM ([2]; 0.5 μM): 38.6%; viability at 0.5 µM ([3]; Homo sapiens, compound 0.5 μM alone, Wst1, vehicle = 100, read-out: No Chemo: percent cell survival): 38.6%; Doxorubicin 3.5 μM: percent cell survival ([3]; compound 0.5 μM + doxorubicin 3.5 μM): 75.1%; Oxaliplatin 100 μM: percent cell survival ([3]; compound 0.5 μM + oxaliplatin 100 μM): 93%; Paclitaxel 50 μM: percent cell survival ([3]; compound 0.5 μM + paclitaxel 50 μM): 97.3%; Vincristine 100 nM: percent cell survival ([3]; compound 0.5 μM + vincristine 100 nM): 82.2%
3 | c1ccc(COc2ccc(Nc3ccnc4ccccc34)cc2)cc1 [DJ, N-[4-(Benzyloxy)phenyl]quinolin-4-amine] | 22.32 | 89 | 66.9 | 85.9 | 85.9 | 116.2 | 137.1 | 137.1 | 115.3 | –
4 | CCCCCCOc1cccc(OCCNc2ccnc3ccccc23)c1 [CW, N-{2-[3-(Hexyloxy)phenoxy]ethyl}quinolin-4-amine] | 43.71 | 25.1 | 18.4 | – | – | – | – | – | – | viability at 0.4 µM ([2]; 0.4 μM): 98.5%; viability at 0.4 µM ([3]; Homo sapiens, compound 0.4 μM alone, Wst1, vehicle = 100, read-out: No Chemo: percent cell survival): 98.5%; Doxorubicin 3.5 μM: percent cell survival ([3]; compound 0.4 μM + doxorubicin 3.5 μM): 31.9%; Oxaliplatin 100 μM: percent cell survival ([3]; compound 0.4 μM + oxaliplatin 100 μM): 26.6%; Paclitaxel 50 μM: percent cell survival ([3]; compound 0.4 μM + paclitaxel 50 μM): 55.9%; Vincristine 100 nM: percent cell survival ([3]; compound 0.4 μM + vincristine 100 nM): 69.4%
5 | CCCCCCOCCCCCCCCn1cnc2cnc3ccccc3c21 [GB, 1-[8-(Hexyloxy)octyl]-1H-imidazo[4,5-c]quinoline] | 19.29 | 97 | 22.6 | – | – | – | – | – | – | viability at 1.5 µM ([2]; 1.5 μM): 36.4%; viability at 1.5 µM ([3]; Homo sapiens, compound 1.5 μM alone, Wst1, vehicle = 100, read-out: No Chemo: percent cell survival): 36.4%; Doxorubicin 3.5 μM: percent cell survival ([3]; compound 1.5 μM + doxorubicin 3.5 μM): 52.8%; Oxaliplatin 100 μM: percent cell survival ([3]; compound 1.5 μM + oxaliplatin 100 μM): 76.2%; Paclitaxel 50 μM: percent cell survival ([3]; compound 1.5 μM + paclitaxel 50 μM): 24%; Vincristine 100 nM: percent cell survival ([3]; compound 1.5 μM + vincristine 100 nM): 38.8%
6 | c1cncc(CNc2ccnc3ccccc23)c1 [BY, N-(Pyridin-3-ylmethyl)quinolin-4-amine] | 39.64 | 107 | 209 | 96.6 | 96.6 | 98.4 | 101.1 | 99.9 | 94.1 | –
